Columns and labels:
[1] = test system: lymphocytes; test: GLP toxicological studies, lymphocyte count, rats; format: in vivo, Wistar rats; conditions: mean ± SD
Source text: T r eat m e nt N Ly m p h o c y te s Equivalent m ou se d o se
( mg /k g p. o. ga va g e) (109/ L ) ( mg /k g p.o ga va ge)
6 m ont h s W i sta r r at s
9 m ont h s Be ag le d og s
Eff ec t of t r ea t me nt wi t h O RY-2 00 1 a d mi ni st e r e d by or al ga va ge o n l y m ph oc yt e s ob se r ve d i n G LP
t ox i c ol ogi c a l st udi e s i n r at a nd do g. A ni ma l s we r e t re a t e d or al l y (fi ve c o ns e c ut i ve da ys/ we e k) by ga va ge
28 da ys or 6 mo nt hs ( ra t s) a nd 28 da ys or 9 mo nt hs (dogs). Data re prese nt de me a n ± S D. T he e q ui va l e n t
dos e i n m o use i s i n di c at e d. 1-wa y A N OV A a n d D u n ne t t’ s M ul ti pl e C o m pa ri so n t e st wa s use d.

[2] = test system: SMI-32 positive motoneurons in spinal cord explants; test: Spinal cord organotypic cultures, chronic excitotoxicity (THA); format: cell-based, rat; conditions: ORY-2001 5, 25 and 125 nM, THA 100 µM
Protocol: Lumbar spinal cords were aseptically obtained from 8-day-old Sprague-Dawley rat pups previously euthanized by pentobarbital overdose. The tissue was placed in ice-cold high glucose containing (6.4 mg/mL) Gey’s Balanced Salt Solution (GBSS). Meninges and roots were removed, and the spinal cord was transversely sectioned into 350 µm thick slices with a McIlwain Tissue Chopper. Four slices were carefully transferred onto 30-mm-diameter Millicell-CM membranes (0.4 µm, Millipore, Billerica, MA, USA) into a 6-well plate (35-mm-diameter, Falcon) containing 1 mL of incubation medium [50% (v/v) minimal essential medium (MEM), 25 mM Hepes, 25% (v/v) heat- inactivated horse serum, 2 mM glutamine and 25% (v/v) Hank’s Balanced Salt Solution (HBSS) supplemented with 25.6 mg/mL glucose; pH 7.2. Cultures were allowed to stabilize for 1 week at 37 °C in a 5% CO2/95% air humidified environment, and thereafter medium was changed twice per week. After 7 days of the explant culture, chronic glutamate excitotoxicity was induced by exposure at DL-threo-β-hydroxyaspartic acid (THA; 100 µM; Sigma-Aldrich, Saint Louis, MO, USA). […] Motoneurons, identified by SMI-32 immunostaining and localization in the ventral horn, were counted by using the Cell Counter plugin of ImageJ software. A minimum of 12 sections were evaluated for each experimental condition.

[3] = test system: SH-SY5Y cells; test: Human H3 acetylation assay (Western blot), cellular HDAC activity; format: cell-based; conditions: 1 and 0.1 µM, 2 and 6 h
Protocol: Human H3 acetylation assays: for the determination of global and K9-specific acetylation levels, 500,000 SH-SY5Y cells were seeded in 6-well plates in DMEM/F12 1:1 (Sigma), supplemented with 2 mM glutamine (LabClinics) and 10% FBS (Sigma) and incubated at 37 °C and 5% CO2 in a humid atmosphere. […] After 2 and 6 h of treatment, cells were harvested and centrifuged at 250× g for 4 min at room temperature and cell pellets used for total histone extraction with EpiQuik Total Histone Extraction Kit (Epigentek, Farmingdale, NY, USA) following manufacturer’s instructions. 1 µg of histone extracts were run in MOPS buffer in 12% PAGE (Life Technologies, Carlsbad, CA, USA) and transferred with the iBlot system to nitrocellulose membranes. Transferred blots were stained with the Ponceau S solution (Sigma) and scanned with an Epson Perfection V600 Photo Scanner. Membranes were blocked in blocking buffer (5% skimmed milk in PBS-Tween 0.1%) for 1 h at room temperature, and after blocking blots were incubated with rabbit polyclonal anti-H3K9Ac (1:2000 dilution, Abcam, Cambridge, UK) and rabbit polyclonal anti-H3ac (K9 + K14 + K18 + K23 + K27) (1:2000 dilution, Abcam) overnight at 4 °C in ablocking buffer. […]

Row | Compound | Lymphocytes ([1]; 6 months Wistar rats, 0.07 mg/kg p.o. gavage (equivalent mouse dose 0.14)) | Lymphocytes ([1]; 6 months Wistar rats, 0.20 mg/kg p.o. gavage (equivalent mouse dose 0.40)) | Lymphocytes ([1]; 6 months Wistar rats, 0.40 mg/kg p.o. gavage (equivalent mouse dose 0.80)) | Lymphocytes ([1]; 28 d Wistar rats, 0.07 mg/kg p.o. gavage (equivalent mouse dose 0.14)) | Lymphocytes ([1]; 28 d Wistar rats, 0.20 mg/kg p.o. gavage (equivalent mouse dose 0.40)) | Lymphocytes ([1]; 28 d Wistar rats, 0.60 mg/kg p.o. gavage (equivalent mouse dose 1.20)) | protection of motoneurons compared with riluzole (5 µM) [2] | survival of SMI32 positive motoneurons challenged with THA ([2]; to 28 DIV) | impact on cellular HDAC activity (acetylated H3 or H3K9 levels) [3]
1 | Nc1nnc(CN[C@@H]2C[C@H]2c2ccc(OCc3ccccc3)cc2)o1 [ORY-2001] | 3.25 ± 0.75 109/L | 4.02 ± 0.99 109/L | 3.72 ± 1.12 109/L | 3.65 ± 1.39 109/L | 3.44 ± 0.62 109/L | 3.89 ± 1.14 109/L | outperformed the effect exerted by riluzole | protected the motoneurons from chronic excitotoxic stress at all doses tested | –
2 | CCCCCCCCc1ccc(CCC(N)(CO)CO)cc1 [FTY720, Fingolimod, reference compound] | – | – | – | – | – | – | – | – | unable to confirm the previous studies reporting that FTY720 or FTY720-P had any significant impact

Source: publication PMC9323733, “Efficacy of Vafidemstat in Experimental Autoimmune Encephalomyelitis Highlights the KDM1A/RCOR1/HDAC Epigenetic Axis in Multiple Sclerosis” (Pharmaceutics, 2022)
